Reference: patent US6479487B1, “6, 9-disubstituted 2-[trans-(4-aminocyclohexyl)amino] purines” (Aventis Pharmaceuticals Inc., priority 1998, dated 2002)
pIC50: −log10 of the molar value. Several values for one entry are separate records, joined by “and”; a condition that tells them apart may be missing. Identical values can stand only once. Counter-ions that a name gives are not always drawn. Like-named read-outs stand apart in the source and are kept apart here.

Experiments:
cdk2/cyclin E = target: T1, cdk2/cyclin E (Homo sapiens, UniProt P24941); assay: Cyclin-Dependent Kinase 2 Assay (cdk2/cyclin E, GST-Rb substrate); format: biochemical; conditions: recombinant cdk2/cyclin E, 10 μM ATP, 30 min at 30° C., several values in a cell = separate determinations, read-out: CDK-2 Inhibition IC50
T1 construct: made in house; host or cells: insect cells (baculovirus co-infection)
Method: Substrate: GST-Rb as described above for cdk4/cyclin D1
Assay conditions for cdk2/cyclin E were identical to those for cdk4/cyclin D1 including the substrate. The concentration of recombinant cdk2/cyclin E in the assay was 0.1 μg per 100 μl assay. Incubation was for 30 min at 30° C.

cdk4/cyclin D1 = target: T2, cdk4/cyclin D1 (Homo sapiens, UniProt P11802); assay: Cyclin-dependent Kinase 4 Assay (cdk4/cyclin D1, GST-Rb substrate); format: biochemical; conditions: cdk4/cyclin D1 insect cell lysate, 10 μM ATP, 30 min at 37° C., several values = separate determinations, read-out: CDK4 Inhibition IC50
T2 construct: made in house; host or cells: Sf9 insect cells (Bac-to-Bac baculovirus, pFastBac)
Method in brief: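 Insect-cell lysate of coexpressed cdk4/cyclin D1 (0.1 μg) acts on GST-Rb (0.5 μg) bound to glutathione-Sepharose, in 50 mM HEPES pH 7.5, 10 mM MgCl2, 1 mM EGTA. Reaction runs 30 min at 37 °C, then is stopped by filtration and TNEN washes. Rb phosphorylation read by scintillation counting; IC50 derived.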

MDA-MB-231 = assay: In vitro tumor cell proliferation, MDA-MB-231; format: cell-based, human; conditions: sulforhodamine B or CyQUANT assay, many values given with an undefined *, read-out: In vitro Tumor Cell Proliferation (IC50, μM) Breast MDA-MB-231
Method in brief: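 Cells plated overnight at 37 °C, then exposed to drug for 3 days, refed with fresh drug and incubated 4 more days. Read-out by sulforhodamine B staining after TCA fixation; alternatively, CyQUANT after 3-day drug exposure and freezing at −80 °C.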

HT-29 = assay: In vitro tumor cell proliferation, HT-29; format: cell-based, human; conditions: many values given with an undefined *, read-out: In vitro Tumor Cell Proliferation (IC50, μM) Colon HT-29
Method in brief: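 HT-29 cells seeded overnight at 37° C, then exposed to drug for 3 days, refed with fresh drug-containing medium for 4 more days. Proliferation read by sulforhodamine B staining after TCA fixation; alternatively by CyQUANT after freezing plates at −80° C following 3 days' drug exposure.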

HCT-15 = assay: In vitro tumor cell proliferation, HCT-15; format: cell-based, human; conditions: read-out: In vitro Tumor Cell Proliferation (IC50, μM) Colon HCT-15
Method: The proliferation of tumor cells was measured using a sulforhodamine B assay as described in Skehan, P., et al., J. Natl. Cancer Inst. […] Tumor cells were harvested with trypsin-EDTA, cells that excluded trypan blue were counted, added to 96-well plates and incubated overnight at 37° C. Drug was added to the wells following dilution in culture medium. Three days later, the medium was removed and replenished with medium containing fresh drug and incubated an additional 4 days. The cells were then fixed with 0.1 ml 10% trichloroacetic acid for 60 min at 4° C. The plates were rinsed five times with tap water, air-dried and stained for 30 min with 0.4% sulforhodamine B in 1% acetic acid and air-dried.
Alternatively, the CyQUANT cell proliferation assay was used to quantitate cell proliferation.
Alternatively, the CyQUANT cell proliferation assay was used to quantify tumor cell proliferation. Tumor cells were harvested with trypsin-EDTA, cells that excluded trypan blue were counted, added to 96-well plates and incubated overnight at 37° C. Drug was added to the wells following dilution in culture medium. Three days later the medium was removed and the plates frozen at −80° C. for at least 30 minutes.

A549 = assay: In vitro tumor cell proliferation, A549; format: cell-based, human; conditions: many values given with an undefined *, read-out: In vitro Tumor Cell Proliferation (IC50, μM) Lung A549
Method in brief: (§1)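 Growth was quantified by sulforhodamine B staining of TCA-fixed cells after 3 days of drug plus 4 more days with fresh drug, or by CyQUANT after 3 days of drug and freezing at −80° C. Counted viable cells were plated and incubated overnight at 37° C before drug.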

DMS-114 = assay: In vitro tumor cell proliferation, DMS-114; format: cell-based, human; conditions: many values given with an undefined *, read-out: In vitro Tumor Cell Proliferation (IC50, μM) Lung DMS-114
Method in brief: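 Human small cell lung carcinoma DMS-114 cells plated overnight, then drug-treated for 3 days, medium and drug renewed, and incubated 4 more days. Growth read by sulforhodamine B staining after TCA fixation; alternatively by CyQUANT after 3 days' drug exposure and freezing at −80 °C.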

PC-3 = assay: In vitro tumor cell proliferation, PC-3; format: cell-based, human; conditions: many values given with an undefined *, read-out: In vitro Tumor Cell Proliferation (IC50, μM) Prostate PC-3
Method in brief: as §1

DU145 = assay: In vitro tumor cell proliferation, DU145; format: cell-based, human; conditions: many values given with an undefined *, read-out: In vitro Tumor Cell Proliferation (IC50, μM) Prostate DU145
Method in brief: as §1

MDA-MB-435 = assay: In vitro tumor cell proliferation, MDA-MB-435; format: cell-based; conditions: values given with an undefined *, read-out: In vitro Tumor Cell Proliferation (IC50, μM) Breast MDA-MB-435
Method in brief: as §1

Colo-205 = assay: In vitro tumor cell proliferation, Colo-205; format: cell-based; conditions: values given with an undefined *, read-out: In vitro Tumor Cell Proliferation (IC50, μM) Colon Colo-205
Method in brief: as §1

[1] = Homo sapiens, MDA-MB-231, MDA-MB-231
[2] = Homo sapiens, MDA-MB-435, MDA-MB-435
[3] = Homo sapiens, COLO 205, Colo-205

T2 sequence (P11802 whole entry): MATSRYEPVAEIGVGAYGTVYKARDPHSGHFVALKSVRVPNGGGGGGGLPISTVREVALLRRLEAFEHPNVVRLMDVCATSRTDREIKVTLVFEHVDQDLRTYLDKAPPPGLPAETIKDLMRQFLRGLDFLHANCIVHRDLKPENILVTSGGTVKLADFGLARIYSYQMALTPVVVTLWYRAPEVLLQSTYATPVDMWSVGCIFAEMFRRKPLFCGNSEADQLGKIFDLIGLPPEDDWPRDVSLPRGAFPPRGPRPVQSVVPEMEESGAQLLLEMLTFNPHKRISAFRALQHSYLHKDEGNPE
T2 sequence (P24385 whole entry partner): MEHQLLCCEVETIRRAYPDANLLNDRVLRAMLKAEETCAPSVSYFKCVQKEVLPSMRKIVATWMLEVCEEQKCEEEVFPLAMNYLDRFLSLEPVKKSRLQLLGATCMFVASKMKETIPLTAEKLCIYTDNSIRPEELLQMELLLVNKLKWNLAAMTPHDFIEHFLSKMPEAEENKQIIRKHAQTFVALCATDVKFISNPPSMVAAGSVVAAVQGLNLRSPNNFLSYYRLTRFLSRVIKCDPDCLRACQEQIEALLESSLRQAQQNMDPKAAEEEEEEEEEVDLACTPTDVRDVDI

Row | SMILES | IC50 (cdk2/cyclin E) | pIC50 (cdk4/cyclin D1) | IC50 (MDA-MB-231; [1]) | IC50 (MDA-MB-231; MDA-MB-231, dihydrochloride) | IC50 (HT-29; HT-29, dihydrochloride) | IC50 (HT-29; Homo sapiens, HT-29, HT-29) | IC50 (HCT-15; Homo sapiens, HCT-15, HCT-15) | IC50 (A549; A549, dihydrochloride) | IC50 (A549; Homo sapiens, A549, A549) | IC50 (DMS-114; DMS-114, dihydrochloride) | IC50 (DMS-114; Homo sapiens, DMS-114, DMS-114) | IC50 (PC-3; Homo sapiens, PC-3, PC-3) | IC50 (PC-3; PC-3, dihydrochloride) | IC50 (DU145; DU145, dihydrochloride) | IC50 (DU145; Homo sapiens, DU-145, DU145) | pIC50 (cdk2/cyclin E) | IC50 (MDA-MB-231; MDA-MB-231, trihydrochloride) | IC50 (MDA-MB-435; MDA-MB-435, trihydrochloride) | IC50 (HT-29; HT-29, trihydrochloride) | IC50 (Colo-205; Colo-205, trihydrochloride) | IC50 (Colo-205; [3]) | also measured
1 | COc1ccc(CNc2nc(N[C@H]3CC[C@H](N)CC3)nc3c2ncn3C2CCCC2)cc1 [Example 8, 2-[Trans-(4-aminocyclohexyl)amino]-6-[(4-methoxybenzyl)amino]-9-cyclopentylpurine dihydrochloride] | 30 nM (2×) and 48 nM and 22 nM | 5.18 and 5.49 | 0.88 µM | 1.2 µM | 1.4 µM | 1.3 µM | 4.5 µM | 1.1 µM | 0.8 µM | 0.89 µM | 0.8 µM | 0.98 µM | 0.63 µM | 1.2 µM | 0.88 µM | – | – | – | – | – | – | IC50 (HCT-15; HCT-15, dihydrochloride): 3.5 µM
2 | COc1ccccc1CNc1nc(N[C@H]2CC[C@H](N)CC2)nc2c1ncn2C1CCCC1 [Example 12, 2-[Trans-(4-aminocyclohexyl)amino]-6-[(2-methoxybenzyl)amino]-9-cyclopentylpurine dihydrochloride] | – | 5.35 and 5.21 | 8.6 µM | 11 µM | 8.5 µM | 7.3 µM | 16 µM | 3.5 µM | 5.6 µM | – | 5.4 µM | 4.4 µM | 3.5 µM | 6.7 µM | 3.5 µM | 6.64 | – | – | – | – | – | –
3 | CCN(CC)CCNc1nc(N[C@H]2CC[C@H](N)CC2)nc2c1ncn2C1CCCC1 [Example 6, 2-[Trans-(4-aminocyclohexyl)amino]-6-[2-(diethylamino)ethylamino]-9-cyclopentylpurine trihydrochloride] | – | 6.52 and 6.15 | 6.2 µM | – | – | – | – | – | 7.2 µM | – | 6.3 µM | 6.4 µM | – | – | 7.8 µM | 6.16 | 6.4 µM | 11 µM | 7.7 µM | 4.7 µM | 5.4 µM | IC50 (DMS-114; DMS-114, trihydrochloride): 9.6 µM; IC50 (PC-3; PC-3, trihydrochloride): 8.2 µM; IC50 (DU145; DU145, trihydrochloride): 7.9 µM

Continued, in another order:

Row | IC50 (cdk2/cyclin E) | pIC50 (cdk4/cyclin D1) | IC50 (MDA-MB-231; [1]) | IC50 (MDA-MB-231; MDA-MB-231, dihydrochloride) | IC50 (HT-29; HT-29, dihydrochloride) | IC50 (HT-29; Homo sapiens, HT-29, HT-29) | IC50 (HCT-15; Homo sapiens, HCT-15, HCT-15) | IC50 (A549; A549, dihydrochloride) | IC50 (A549; Homo sapiens, A549, A549) | IC50 (DMS-114; DMS-114, dihydrochloride) | IC50 (DMS-114; Homo sapiens, DMS-114, DMS-114) | IC50 (PC-3; Homo sapiens, PC-3, PC-3) | IC50 (PC-3; PC-3, dihydrochloride) | IC50 (DU145; DU145, dihydrochloride) | IC50 (DU145; Homo sapiens, DU-145, DU145) | pIC50 (cdk2/cyclin E) | IC50 (MDA-MB-231; MDA-MB-231, trihydrochloride) | IC50 (MDA-MB-435; MDA-MB-435, trihydrochloride) | IC50 (HT-29; HT-29, trihydrochloride) | IC50 (Colo-205; Colo-205, trihydrochloride) | IC50 (Colo-205; [3]) | SMILES | also measured
4 | – | 5.19 and 5.16 | 4.5 µM | 4.3 µM | 3 µM | 2.6 µM | 4 µM | – | 1.9 µM | 0.95 µM | 0.85 µM | 1.1 µM | 1.7 µM | 1.7 µM | 0.95 µM | 6.59 | – | – | – | – | – | N[C@H]1CC[C@H](Nc2nc(NCc3ccccc3C(F)(F)F)c3ncn(C4CCCC4)c3n2)CC1 [Example 25, 2-[Trans-(4-aminocyclohexyl)amino]-6-[(2-trifluorobenzyl)amino]-9-cyclopentylpurine dihydrochloride] | IC50 (HCT-15; HCT-15, dihydrochloride): 3.7 µM
5 | – | – | 6.1 µM | 7.9 µM | – | 6.8 µM | 9.9 µM | 7.5 µM | 6.8 µM | 5.8 µM | 5.3 µM | 4 µM | – | 6.9 µM | 3.6 µM | 6.46 | – | – | – | – | – | COc1ccc(CNc2nc(N[C@H]3CC[C@H](N)CC3)nc3c2ncn3C2CCCC2)c(OC)c1 [Example 17, 2-[Trans-(4-aminocyclohexyl)amino]-6-[(2,4-dimethoxybenzyl)amino]-9-cyclopentylpurine dihydrochloride] | –
6 | – | 5.62 and 5.35 | 0.64 µM | – | – | 0.65 µM | – | – | 0.42 µM | – | 0.92 µM | 0.63 µM | – | – | 0.46 µM | 5.92 and 6.04 | 0.73 µM | 0.95 µM | 0.61 µM | 0.62 µM | 0.48 µM | N[C@H]1CC[C@H](Nc2nc(NC3CCN(Cc4ccccc4C(F)(F)F)CC3)c3ncn(C4CCCC4)c3n2)CC1 [Example 147-b, 2-[Trans-(4-aminocyclohexyl)amino]-6-[4-[1-(2-trifluoromethylbenzyl)]piperidinylamino]-9-cyclopentylpurine trihydrochloride] | IC50 (MDA-MB-435; [2]): 0.99 µM; IC50 (A549; A549, trihydrochloride): 0.4 µM; IC50 (DMS-114; DMS-114, trihydrochloride): 0.82 µM; IC50 (PC-3; PC-3, trihydrochloride): 0.78 µM; IC50 (DU145; DU145, trihydrochloride): 0.61 µM
7 | – | 5.51 and 5.41 | 0.57 µM | – | – | 0.71 µM | – | – | 0.39 µM | – | 0.91 µM | 0.46 µM | – | – | 0.54 µM | 6.52 and 6.96 and 6.44 | 0.6 µM | 0.68 µM | 0.72 µM | 0.48 µM | 0.45 µM | N[C@H]1CC[C@H](Nc2nc(NC3CCN(Cc4ccc5ccccc5c4)CC3)c3ncn(C4CCCC4)c3n2)CC1 [Example 147-p, 2-[Trans-(4-aminocyclohexyl)amino]-6-[4-[1-(2-naphthyl)methyl]piperidinylamino]-9-cyclopentylpurine trihydrochloride] | IC50 (MDA-MB-435; [2]): 0.59 µM; IC50 (A549; A549, trihydrochloride): 0.34 µM; IC50 (DMS-114; DMS-114, trihydrochloride): 0.68 µM; IC50 (PC-3; PC-3, trihydrochloride): 0.66 µM
